Key:
DSEK cells = test: Growth of DSEK cells (in vitro rheumatoid model), WST-1; format: cell-based, human
Procedure: DSEK cell is a fibroblast cell line established from a synovial membrane of a human patient with chronic rheumatism and is held at Department of Second Internal Medicine, Integrated Medical Center, Saitama Collage of Medicine as an in vitro rheumatoid model. DSEK cells were cultured in Iscov-MEM medium (IMDM: Gibco-BRL) containing 10% FBS (Bio Whittaker) at 37° C. in the presence of 5% CO2 to saturation of culture vessel. The cells were suspended in the same medium at a concentration of 3×10^4 cells/ml using a trypsin-EDTA solution (Bio Whittaker). 200 μl of the suspension was dispensed into each well of a 96-well microtiter plate (Falcon). […]
10 μl of Premix WST-1 (Takara Shuzo, MK400) was added to one of the wells at intervals of 24 hours up to 72 hours after the medium change. The mixture was reacted at 37° C. for 3.5 hours. The degree of cell growth was expressed by a value obtained by subtracting the absorbance at 650 nm (A650) from the absorbance at 450 nm (A450).

celiac macrophages = test: TPA-induced IL-6 production in celiac macrophages; format: cell-based, mouse; details: 5 μl of 20, 10 or 5 mM solution per 500 μl; 14 hours; concentration dependent; FIG. 16
Procedure: 4 ml of RPMI 1640 medium (Bio Whittaker, 12-702F) containing 10% fetal calf serum was intraperitoneally injected into ddy mouse (Japan SLC, female, 7 weeks old) The medium was removed after extensive massage to obtain celiac cells. The celiac cells were suspended in RPMI 1640 medium containing 10% fetal calf serum at a concentration of 10^6 cells/ml. 500 μl of the suspension was added to each well of a 48-well microtiter plate and the plate was incubated at 37° C. for 2 hours in the presence of 5% CO2. Adhesive cells obtained by removing the culture supernatant were used as celiac macrophaaes. 500 μl of fresh Dulbecco's modified Eagle's medium (Bio Whittaker, 12-917F) without Phenol Red containing 10% fetal calf serum and 2 mM L-glutamine was added to each well. 5 μl of 20, 10 or 5 mM aqueous solution of agarobiose obtained in Referential Example 1 and 5 μl of 10 μg/ml aqueous solution of 12-O-tetradecanoylphorbol 13-acetate (TPA, Gibco, 13139-019) were added to the well. The plate was incubated for additional 14 hours, and the culture supernatant was then collected. The content of interleukin 6 (IL-6) in the culture supernatant was measured using enzyme immuno sandwich assay (ELISA; Matched antibody Pair Sample Pak-mouse IL6, Endogen). As a control, a group to which the agarobiose aqueous solution or the TPA aqueous solution was not added was provided. […]

human FGF-β = test: FGF-β production from DSEK cells (ELISA); format: cell-based; details: DSEK culture supernatant
Procedure: 150 μl of a culture supernatant was collected from a well containing a culture of DSEK cells over time at intervals of 24 hours. The effects of agarobiose on the production (expression) of cytokines (human TGF-β, human FGF-β and human IL-10) from the cell were determined using ELISA kits specific for the respective cytokines (from Intergen for human FGF-β and human IL-10; and from Promega for human TGF-β).

OC[C@H]1O[C@@H](O[C@H]2[C@H]3OC[C@@H]2OC(O)[C@H]3O)[C@H](O)[C@@H](O)[C@H]1O (mixture of isomers) [Agarobiose, agarobiose]
Degree of cell growth (A450-650) (DSEK cells; 50 μM, 24 hr): 1.00 A450-650 | Degree of cell growth (A450-650) (DSEK cells; 50 μM, 48 hr): 1.49 A450-650 | Degree of cell growth (A450-650) (DSEK cells; 50 μM, 72 hr): 1.27 A450-650 | Degree of cell growth (A450-650) (DSEK cells; 100 μM, 24 hr): 0.88 A450-650 | Degree of cell growth (A450-650) (DSEK cells; 100 μM, 48 hr): 1.87 A450-650 | Degree of cell growth (A450-650) (DSEK cells; 100 μM, 72 hr): 1.26 A450-650 | Degree of cell growth (A450-650) (DSEK cells; 200 μM, 24 hr): 0.89 A450-650 | Degree of cell growth (A450-650) (DSEK cells; 200 μM, 48 hr): 1.50 A450-650 | Degree of cell growth (A450-650) (DSEK cells; 200 μM, 72 hr): 0.93 A450-650 | Degree of cell growth (A450-650) (DSEK cells; 400 μM, 24 hr): 0.87 A450-650 | Degree of cell growth (A450-650) (DSEK cells; 400 μM, 48 hr): 0.52 A450-650 | Degree of cell growth (A450-650) (DSEK cells; 400 μM, 72 hr): 0.47 A450-650 | Degree of cell growth (A450-650) (DSEK cells; 800 μM, 24 hr): 0.54 A450-650 | Degree of cell growth (A450-650) (DSEK cells; 800 μM, 48 hr): 0.45 A450-650 | Degree of cell growth (A450-650) (DSEK cells; 800 μM, 72 hr): 0.56 A450-650 | IC50 (DSEK cells; 72 hours, read-out: concentration that resulted in the inhibition of the growth of half cells (IC50)): 169 µM | TPA-induced IL-6 production (celiac macrophages): suppression of TPA-induced IL-6 production | production of human FGF-β (human FGF-β): activities of inhibiting the production
